{"source": "patent US20250339409A1", "about": "“USES OF PAN BET INHIBITORS” (VYNE THERAPEUTICS INC., priority 2021, published 2025)", "key": {"[1]": {"tested_on": "right knee joint", "assay": "Toxicity in dogs after intra-articular injection: mortality, pathology, knee joint histopathology (Mankin score)", "type": "in vivo", "settings": "dog", "description": "The purpose of this study was to determine the maximum tolerated dose and potential toxicity of BETi1 when administered by intra-articular injection to Beagle dogs and to determine local and systemic toxicokinetic characteristics associated with treatment of Beagle dogs with BETi1 formulations.\n16 Beagle dogs (8 males, 8 females) were assigned to four treatment groups to determine toxicity of BETi1 formulations following intra-articular injection.\nThe experimental groups are presented below: • Group 1: Control; 0 mg of BETi1/animal dose • Group 2: Low Dose; 7.5 mg of BETi1/animal dose • Group 3: Mid Dose; 75 mg of BETi1/animal dose • Group 4: High Dose; 150 mg of BETi1/animal dose […]\nSeveral features were measured in treated dogs, including viability, clinical observation, body weight, food consumption, clinical pathology (hematology, coagulation, serum chemistry, urinalysis), toxicokinetics, and pathology.\nFor all animals from the study, representative samples of organs and all gross lesions and masses from all groups were removed from fixative, trimmed, processed, embedded in paraffin, sectioned, stained with hematoxylin and eosin, and examined microscopically. […] A modified Semi-Quantitative Mankin scoring system was used to in evaluation of right knee joint histopathology, as shown in Table 48 below: […]"}, "[2]": {"assay": "Solubility of BETi1 in solutions of hydroxypropyl-β-cyclodextrin in saline (HPLC)", "type": "physicochemical", "settings": "for solubility: aqueous with cosolvent or surfactant or cyclodextrin, thermodynamic from solid, 25° C., HPLC, read-out: Approximate solubility", "procedure": "Saline is prepared by dissolving 0.9% of NaCl in water. 10% w/w or 20% w/w of hydroxypropyl-β-cyclodextrin (2HP-β-CD) is added to saline, sonicated for 1 minute, and mixed using magnetic stirrer until complete dissolution of 2HP-β-CD and a clear solution is obtained. Sufficient BETi1 is added to each 2HP-β-CD solution such that not all BETi1 is completely dissolved. The mixture is stirred with a magnetic stirrer at ambient conditions overnight (for at least 16 hours). The saturated samples, still containing solid phase, are filtered through a 0.45 μm filter and the filtrate is analyzed by HPLC."}}, "note": "Read-outs that look alike come from different tables or passages of the source.", "data": [{"smiles": "Cn1cc(-c2cccc(O)c2Oc2ccccc2)c2cc[nH]c2c1=O", "note": "[BETi1]", "values": [{"measurement": "tolerability, synovium findings", "setting": "[1]; intra-articular 7.5, 75, 150 mg, 28 days", "value": "overall well-tolerated"}, {"measurement": "total Mankin score, right knee joint", "setting": "[1]; intra-articular, 14-points scale", "value": "total Mankin score of zero except for one animal at 75 mg dose"}, {"measurement": "amount of BETi1 fully dissolved", "setting": "[2]; 10% HP-b-CD in saline, room temperature", "value": "below 4.3 mg/mL"}, {"measurement": "solubility", "setting": "[2]; 10% w/w hydroxypropyl-β-cyclodextrin in saline, 2HP-β-CD - Saline (10%:90%)", "value": 4340, "unit": "µg/mL"}, {"measurement": "solubility", "setting": "[2]; 20% w/w hydroxypropyl-β-cyclodextrin in saline, 2HP-β-CD - Saline (20%:80%)", "value": 8990, "unit": "µg/mL"}]}]}
